Laboratory results from patent US20220323594A1, “LIPIDATED CATIONIC PEPTIDE-PEG COMPOSITIONS FOR NUCLEIC ACID DELIVERY” (NUTCRACKER THERAPEUTICS, INC., priority 2019, published 2022).

Columns and labels:
[1] = Dynamic light scattering (DLS) of mRNA/peptoid formulations: particle size and polydispersity; type: physicochemical; details: Fluc mRNA/peptoid formulation; for Size PDI: size polydispersity index by DLS, 5:1 mass ratio; for Size (nm): volume average particle size/diameter by DLS, 5:1 mass ratio peptoid:cargo
Outline: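 Fluc mRNA was complexed with amino lipidated peptoids by pipetting at a 5:1 peptoid:cargo mass ratio, peptoid in ethanol and mRNA in PBS pH 5.5 (1:3 volume ratio). DLS gave volume-average diameter (nm) and polydispersity index.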

[2] = mRNA encapsulation by fluorescence of Qubit RNA HS dye before and after lysis with Triton X-100; type: physicochemical; details: percentage of mRNA encapsulation; Fluc mRNA/peptoid formulation, 5:1 mass ratio
Outline: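 Peptoid/Fluc mRNA nanoparticles were formed by pipette mixing at a 5:1 peptoid:mRNA mass ratio. Percent encapsulation came from Qubit RNA HS dye fluorescence before versus after particle lysis with Triton X-100.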

[3] = tested on: HeLa cells; assay: In vitro expression of firefly luciferase (Fluc) after treatment with Fluc mRNA/amino lipidated peptoid formulations, no PEG or 2% DMG-PEG2000; type: cell-based
Outline: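 Peptoid/Fluc mRNA particles (5:1 w/w), without PEG or with DMG-PEG2000 pre-mixed into peptoid at 2% w/w, dosed at 100 ng mRNA/well on HeLa cells. Luciferase luminescence (RLU) read after 6 h and 24 h.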

[4] = tested on: HeLa cells; assay: In vitro Fluc expression with variable peptoid:mRNA mass ratio, 2% DMG-PEG2000; type: cell-based; details: 24 h; for Observed Luciferase Expression (RLU) for Given Formulation Mass Ratio 2:1: 2% (w/w) DMG-PEG2000, peptoid:mRNA 2:1; for Observed Luciferase Expression (RLU) for Given Formulation Mass Ratio 3.5:1: 2% (w/w) DMG-PEG2000, peptoid:mRNA 3.5:1; for Observed Luciferase Expression (RLU) for Given Formulation Mass Ratio 5:1: 2% (w/w) DMG-PEG2000, peptoid:mRNA 5:1; for Observed Luciferase Expression (RLU) for Given Formulation Mass Ratio 7.5:1: 2% (w/w) DMG-PEG2000, peptoid:mRNA 7.5:1
Outline: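 Fluc mRNA particles formulated at 2:1, 3.5:1, 5:1 and 7.5:1 peptoid:mRNA (w/w), with DMG-PEG2000 at 2% (w/w) relative to amino lipidated peptoid. HeLa cells treated for 24 hours; Fluc expression read as bioluminescence (RLU).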

[5] = MTT viability assay after treatment with Fluc mRNA/amino lipidated peptoid formulations; type: cell-based; details: human, HeLa cells
Outline: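 Formulations (peptoid:mRNA 5:1 mass ratio, 2% w/w DMG-PEG2000) were applied at 100 ng Fluc mRNA per well for 8 h, followed by 48 h of growth. Cells then received 1.5 mg/mL MTT for 2 h, and formazan signal was normalized to untreated cells.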

[6] = tested on: Balb/c mice; assay: In vivo whole-body expression of Fluc following IV administration; details: Balb/c mice (n=3), IV tail-vein, 0.5 mg/kg, 5:1 peptoid:mRNA, 2% w/w DMG-PEG2000, 8 hours
Method: (§1) Amino lipidated peptoid delivery vehicles are effective for in vivo administration of Fluc mRNA to Balb/c mice (n=3) through multiple routes of administration. Briefly, representative amino lipidated peptoid/Fluc formulations (prepared at a 5:1 mass ratio of amino lipidated peptoid:mRNA unless noted, with 2% w/w DMG-PEG2000) were administered at a dose of 0.5 mg/kg via a tail-vein injection, and the resulting bioluminescence was quantified after 8 hours.

[7] = tested on: Balb/c mice; assay: In vivo organ-specific bioluminescence (biodistribution of Fluc) following IV administration; details: for Total Flux (p/s) Liver: dissected liver; for Total Flux (p/s) Lung: dissected lung; for Total Flux (p/s) Spleen: dissected spleen
Method: as §1, with “hours. […] Organ-specific bioluminescence was quantified by sacrificing the treated animal, dissecting out the organs of interest, and separately quantifying the resulting bioluminescence. […] FIG. 7C depicts a bar chart quantifying the organ-specific biodistribution of the formulations as a function of total photon flux.” for “hours.”

[8] = tested on: Balb/c mice; assay: In vivo expression of Fluc following subcutaneous or intramuscular administration
Method: In addition to IV administration, amino lipidated peptoids are also effective for local administration of mRNA through subcutaneous (S.C.) or intramuscular (I.M.) routes of administration. […] For these examples, mRNA was administered at a dose of 0.1 milligrams/kilogram (mpk) for subcutaneous or 0.05 mpk for intramuscular. In these cases, the overall expression was higher following intramuscular injections. […] Additional experiments were carried out to assess any variability in biodistribution as a function of the loading mass ratio of amino lipidated peptoid to the Fluc mRNA. FIG. 8A depicts a plot of total photon flux for formulations of amino lipidated peptoid compound 28 with 2% DMG-PEG 2000 and Fluc mRNA at different peptoid:mRNA ratios (1:1, 2:1, 5:1, 7.5:1 and 10:1).

[9] = no PEG, peptoid:Fluc mRNA 5:1 w/w, 100 ng/well, 6 h of treatment
[10] = no PEG, peptoid:Fluc mRNA 5:1 w/w, 100 ng/well, 24 h of treatment
[11] = with 2% (w/w) DMG-PEG2000, peptoid:mRNA 5:1, 6 h after treatment
[12] = with 2% (w/w) DMG-PEG2000, peptoid:mRNA 5:1, 24 h after treatment

Row | Size PDI [1] | Size (nm) [1] | % Encapsulation [2] | Compound | Luciferase Expression (RLU) 6 h [3, 9] | Luciferase Expression (RLU) 24 h [3, 10] | Luciferase Expression (RLU) 6 h [3, 11] | Luciferase Expression (RLU) 24 h [3, 12] | Observed Luciferase Expression (RLU) for Given Formulation Mass Ratio 2:1 [4] | Observed Luciferase Expression (RLU) for Given Formulation Mass Ratio 3.5:1 [4] | Observed Luciferase Expression (RLU) for Given Formulation Mass Ratio 5:1 [4] | Observed Luciferase Expression (RLU) for Given Formulation Mass Ratio 7.5:1 [4] | viability at 8 h, 500 ng/well ([5]; Relative Viability (%) 2% PEG) | viability at 8 h, 500 ng/well ([5]; Relative Viability (%) No PEG) | Total Flux (photons/sec), whole body [6] | Total Flux (p/s) Liver [7] | Total Flux (p/s) Lung [7] | Total Flux (p/s) Spleen [7] | also measured
1 | 0.085 | 308 nm | 52.0% | CCCCCCCCCCN(CC(N)=O)C(=O)CN(CCCCCCCCCC)C(=O)CN(CCCCCCCCCC)C(=O)CN(CCCCCCCCCC)C(=O)CN(CCc1ccccc1)C(=O)CN(CCc1ccccc1)C(=O)CN(CCCN)C(=O)CN(CCc1ccccc1)C(=O)CN(CCc1ccccc1)C(=O)CN(CCCN)C(=O)CN(CCc1ccccc1)C(=O)CN(CCc1ccccc1)C(=O)CNCCCN [Compound 28] | 9.59E+02 RLU | 4.97E+03 RLU | 8.33E+02 RLU | 6.94E+02 RLU | 1.26E+02 RLU | 1.93E+03 RLU | 5.75E+03 RLU | 2.07E+04 RLU | 92.7% | 85.4% | 2.36E+08 photons/sec | 1.10E+07 p/s | 7.08E+07 p/s | 2.16E+08 p/s | organ localization of Fluc expression ([7]; organ-specific bioluminescence): preferential localization in other organs such as the spleen; expression after IM administration compared with Compound 8 ([8]; intramuscular): significantly outperformed that example; Total Flux (photons/sec) I.M. (0.05 mpk) ([8]; intramuscular, mRNA 0.05 mpk): 7.23E+06 photons/sec; Total Flux (photons/sec) S.C. (0.1 mpk) ([8]; subcutaneous, mRNA 0.1 mpk): 1.65E+06 photons/sec
2 | 0.233 | 554 nm | 77.3% | CCCCCCCCCCN(CC(N)=O)C(=O)CN(CCCCCCCCCC)C(=O)CN(CCN)C(=O)CN(CCN)C(=O)CNCCN [Compound 14] | 3.20E+01 RLU | 1.43E+01 RLU | 4.67E+00 RLU | 9.00E+00 RLU | 8.31E+01 RLU | 1.42E+02 RLU | 4.29E+01 RLU | 2.82E+01 RLU | 91% |  | 4.58E+05 photons/sec | 4.47E+04 p/s | 4.17E+04 p/s | 4.89E+04 p/s | 
3 | 0.047 | 356.9 nm | 90.1% | CCCCCCCCN(CC(N)=O)C(=O)CN(CCCCCCCC)C(=O)CN(CCc1ccccc1)C(=O)CN(CCc1ccccc1)C(=O)CN(CCN)C(=O)CN(CCc1ccccc1)C(=O)CN(CCc1ccccc1)C(=O)CN(CCN)C(=O)CN(CCc1ccccc1)C(=O)CN(CCc1ccccc1)C(=O)CNCCN [Compound 1] | 1.22E+02 RLU | 4.00E+01 RLU | 2.09E+02 RLU | 8.67E+00 RLU | 6.82E+02 RLU | 3.12E+02 RLU | 2.31E+02 RLU | 3.35E+01 RLU | 88.1% | 97.4% |  |  |  |  | 
